Source: PMC9721025, “Pharmacokinetic study of the main components of Tanreqing capsules and Tanreqing injections in beagles by liquid chromatography–tandem mass spectrometry” (Chinese Medicine, 2022)
Where two headings read alike, the source gives them in different places.

Experiments:
[1] = Pharmacokinetics in beagles, multiple-dose regimen (once per day for 7 days) of TRQI or TRQC, plasma LC-MS/MS; format: in vivo; details: beagle, dog
Description: (§1) 100 μL plasma sample was drawn and transferred to 1.5 mL centrifuge tube prior to 300 μL protein precipitant (3:1 [v/v] methanol/acetonitrile, containing 0.1% formic acid and 100 ng/mL IS) was added, and then the sample was vortex-mixed for 3 min. The mixture was centrifuged at 20,000 ×g for 10 min, and 100 μL supernatant was transferred to the injection vial and analyzed directly by LC–MS/MS.
(§2) This study was carried out in six beagles (three males and three females, 9.0–12.0 kg each), that were purchased from Junda Pet Hospital (Shanghai, China). This experimental protocol was approved by the Experimental Animal Ethics Committee of the Naval Military Medical University (Shanghai, China).
After the end of the single-dose experiment, the dogs in group one were given 0.5 mL/kg injection of TRQI once per day for 7 days following the wash out period, and the dogs in group two were given 0.09 g/kg TRQC once per day for 7 days. After the seventh administration, blood samples were collected at 0, 10, 20, and 40 min and then at 1, 1.5, 2, 2.5, 3, 4, 6, 8, 12, and 24 h (a total of 14 time points) and were processed as described in “Single-dose regimen” section. The resulting plasma samples were used to determine the steady-state plasma concentration of TRQI and TRQC. A crossover study was again carried out in both groups, as described in “Single-dose regimen” section, after a 7-day washing period.
(§3) All data obtained were analyzed using Drug and Statistics (DAS) 2.0 software (Chinese Society of Pharmacology), and a non-compartment analysis was used to calculate plasma pharmacokinetic parameters. The principal components of TRQI and TRQC were compared with an analysis of variance (ANOVA) and/or a two-tailed student-t test.

[2] = Pharmacokinetics in beagles, single-dose regimen of TRQI (i.v.) or TRQC (oral), plasma LC-MS/MS; format: in vivo, beagle; details: for AUC(0-t) / Cmax / Tmax / half-life: beagle, dog, plasma; for AUC(0-t): read-out: AUC0–24 h; for Cmax / Tmax / half-life: mean of six beagles
Description: as §1, §2
The six healthy beagles were divided into two groups: beagles 1–3 were all male and were assigned to the first group, and beagles 4–6 were all females and assigned to the second group. The two-cycle, crossover study was designed with a 7-day wash out period. For the single-administration process, the dogs in the first group were injected intravenously with 0.5 mL/kg TRQI (one-third of the normal daily dose), and blood samples were collected at 0, 5, 10, 15, 20, 30, and 45 min and then at 1, 2, 4, 6, 8, 12, and 24 h (a total of 14 time points) after injection. For each blood sample, 1 mL of blood was collected from the forelimb vein in heparin-treated tubes. The dogs in the second group were orally administrated 0.09 g/kg TRQC (one-third of the normal daily dose, and blood samples were collected in the same manner at 0, 10, 20, and 40 min and then at 1, 1.5, 2, 2.5, 3, 4, 6, 8, 12, and 24 h (a total of 14 time points). All blood samples were centrifuged at 4000 × g for 5 min, and each supernatant was collected and aliquoted. After a 7-day wash out period, the dogs in each group were administrated the other Tanreqing formulation in a crossover design, and blood samples were collected and processed in the same way.
as §3

[3] = Stability of analytes in dog plasma (QC samples); format: in vitro ADME
Description: The stock solutions of all analytes were further mixed and diluted with methanol/water (10:90, v/v) solution to prepare the working solutions. […] The QC samples were stored in a refrigerator at – 80 °C until retrieval (see Additional file 1). The stability, which includes short-term stability (6 h at room temperature), long-term stability (− 80 °C for 30 days in the refrigerator), and freeze–thaw stability (three cycles from − 80 °C to room temperature), were assessed using QC samples at three concentration levels in three replicates. […] Similarly, there were no obvious effects on the analysis results of the samples with respect to short-term stability or long-term storage.

[4] = Tanreqing injection, cited from earlier work
[5] = both sexes, iv, TRQI 0.5 mL/kg once per day for 7 days, mean
[6] = both sexes, po, TRQC 0.09 g/kg once per day for 7 days, mean
[7] = both sexes, iv, single i.v. dose of TRQI 0.5 mL/kg
[8] = both sexes, single oral dose of TRQC 0.09 g/kg
[9] = n = 3, high QC: nominal 200 ng/mL baicalin, 1000 ursodeoxycholic acid, 100 chenodeoxycholic acid and chlorogenic acid
[10] = n = 3, low QC: nominal 4 ng/mL baicalin, 20 ursodeoxycholic acid, 2 chenodeoxycholic acid and chlorogenic acid
[11] = n = 3, middle QC: nominal 20 ng/mL baicalin, 100 ursodeoxycholic acid, 10 chenodeoxycholic acid and chlorogenic acid

C[C@H](CCC(=O)O)[C@H]1CC[C@H]2[C@@H]3[C@@H](O)C[C@@H]4C[C@H](O)CC[C@]4(C)[C@H]3CC[C@]12C [Ursodeoxycholic acid, ursodeoxycholic acid]
AUC(0-inf) ([1]; both sexes, iv, 0.5 mL/kg, TRQI 0.5 mL/kg for 7 days, Mean): 19100 ng·h/mL
AUC(0-t) ([1]; both sexes, iv, 0.5 mL/kg, TRQI 0.5 mL/kg for 7 days, Mean, read-out: AUC0–24 h): 16400 ng·h/mL
Cmax at 7 days [1, 5]: 5060 ng/mL
half-life at 7 days [1, 5]: 6.84 h
AUC(0-inf) ([1]; both sexes, po, 0.09 g/kg, TRQC 0.09 g/kg for 7 days, Mean): 35300 ng·h/mL
AUC(0-t) ([1]; both sexes, po, 0.09 g/kg, TRQC 0.09 g/kg for 7 days, Mean, read-out: AUC0–24 h): 28500 ng·h/mL
Cmax at 7 days [1, 6]: 3400 ng/mL
Tmax at 7 days [1, 6]: 5.69 h
half-life at 7 days [1, 6]: 12 h
AUC(0-inf) ([1]; female, iv, 0.5 mL/kg, TRQI 0.5 mL/kg for 7 days, beagle No. 4): 14900 ng·h/mL
AUC(0-t) ([1]; female, iv, 0.5 mL/kg, TRQI 0.5 mL/kg for 7 days, beagle No. 4, read-out: AUC0–24 h): 4740 ng·h/mL
AUC(0-inf) ([1]; female, iv, 0.5 mL/kg, TRQI 0.5 mL/kg for 7 days, beagle No. 5): 4220 ng·h/mL
AUC(0-t) ([1]; female, iv, 0.5 mL/kg, TRQI 0.5 mL/kg for 7 days, beagle No. 5, read-out: AUC0–24 h): 2560 ng·h/mL
AUC(0-inf) ([1]; female, iv, 0.5 mL/kg, TRQI 0.5 mL/kg for 7 days, beagle No. 6): 2810 ng·h/mL
AUC(0-t) ([1]; female, iv, 0.5 mL/kg, TRQI 0.5 mL/kg for 7 days, beagle No. 6, read-out: AUC0–24 h): 2670 ng·h/mL
AUC(0-inf) ([1]; female, po, 0.09 g/kg, TRQC 0.09 g/kg for 7 days, beagle No. 4): 112000 ng·h/mL
AUC(0-t) ([1]; female, po, 0.09 g/kg, TRQC 0.09 g/kg for 7 days, beagle No. 4, read-out: AUC0–24 h): 109000 ng·h/mL
AUC(0-inf) ([1]; female, po, 0.09 g/kg, TRQC 0.09 g/kg for 7 days, beagle No. 5): 20100 ng·h/mL
AUC(0-t) ([1]; female, po, 0.09 g/kg, TRQC 0.09 g/kg for 7 days, beagle No. 5, read-out: AUC0–24 h): 10500 ng·h/mL
AUC(0-inf) ([1]; female, po, 0.09 g/kg, TRQC 0.09 g/kg for 7 days, beagle No. 6): 45000 ng·h/mL
AUC(0-t) ([1]; female, po, 0.09 g/kg, TRQC 0.09 g/kg for 7 days, beagle No. 6, read-out: AUC0–24 h): 17600 ng·h/mL
AUC(0-inf) ([1]; male, iv, 0.5 mL/kg, TRQI 0.5 mL/kg for 7 days, beagle No. 1): 75900 ng·h/mL
AUC(0-t) ([1]; male, iv, 0.5 mL/kg, TRQI 0.5 mL/kg for 7 days, beagle No. 1, read-out: AUC0–24 h): 72400 ng·h/mL
AUC(0-inf) ([1]; male, iv, 0.5 mL/kg, TRQI 0.5 mL/kg for 7 days, beagle No. 2): 1860 ng·h/mL
AUC(0-t) ([1]; male, iv, 0.5 mL/kg, TRQI 0.5 mL/kg for 7 days, beagle No. 2, read-out: AUC0–24 h): 1720 ng·h/mL
AUC(0-inf) ([1]; male, iv, 0.5 mL/kg, TRQI 0.5 mL/kg for 7 days, beagle No. 3): 14600 ng·h/mL
AUC(0-t) ([1]; male, iv, 0.5 mL/kg, TRQI 0.5 mL/kg for 7 days, beagle No. 3, read-out: AUC0–24 h): 14500 ng·h/mL
AUC(0-inf) ([1]; male, po, 0.09 g/kg, TRQC 0.09 g/kg for 7 days, beagle No. 1): 2940 ng·h/mL
AUC(0-t) ([1]; male, po, 0.09 g/kg, TRQC 0.09 g/kg for 7 days, beagle No. 1, read-out: AUC0–24 h): 2760 ng·h/mL
AUC(0-inf) ([1]; male, po, 0.09 g/kg, TRQC 0.09 g/kg for 7 days, beagle No. 2): 24400 ng·h/mL
AUC(0-t) ([1]; male, po, 0.09 g/kg, TRQC 0.09 g/kg for 7 days, beagle No. 2, read-out: AUC0–24 h): 23900 ng·h/mL
AUC(0-inf) ([1]; male, po, 0.09 g/kg, TRQC 0.09 g/kg for 7 days, beagle No. 3): 7520 ng·h/mL
AUC(0-t) ([1]; male, po, 0.09 g/kg, TRQC 0.09 g/kg for 7 days, beagle No. 3, read-out: AUC0–24 h): 7190 ng·h/mL
time at which oral absorption reached a peak ([2]; TRQC, oral, dogs): ~5 h
AUC(0-t) ([2]; both sexes, iv, 0.5 mL/kg, single TRQI 0.5 mL/kg, Mean): 4080 ng·h/mL
Cmax [2, 7]: 2750 ng/mL
Tmax [2, 7]: 0.08 h
half-life [2, 7]: 27.7 h
AUC(0-t) ([2]; both sexes, po, 0.09 g/kg, single TRQCs 0.09 g/kg, Mean): 4400 ng·h/mL
Cmax [2, 8]: 1330 ng/mL
Tmax [2, 8]: 5.94 h
half-life [2, 8]: 10.4 h
AUC(0-t) ([2]; female, iv, 0.5 mL/kg, single TRQI 0.5 mL/kg, beagle No 4): 898 ng·h/mL
AUC(0-t) ([2]; female, iv, 0.5 mL/kg, single TRQI 0.5 mL/kg, beagle No 5): 1160 ng·h/mL
AUC(0-t) ([2]; female, iv, 0.5 mL/kg, single TRQI 0.5 mL/kg, beagle No 6): 992 ng·h/mL
AUC(0-t) ([2]; female, po, 0.09 g/kg, single TRQCs 0.09 g/kg, beagle No 4): 11300 ng·h/mL
AUC(0-t) ([2]; female, po, 0.09 g/kg, single TRQCs 0.09 g/kg, beagle No 5): 1880 ng·h/mL
AUC(0-t) ([2]; female, po, 0.09 g/kg, single TRQCs 0.09 g/kg, beagle No 6): 3700 ng·h/mL
AUC(0-t) ([2]; male, iv, 0.5 mL/kg, single TRQI 0.5 mL/kg, beagle No 1): 18200 ng·h/mL
AUC(0-t) ([2]; male, iv, 0.5 mL/kg, single TRQI 0.5 mL/kg, beagle No 2): 1100 ng·h/mL
AUC(0-t) ([2]; male, iv, 0.5 mL/kg, single TRQI 0.5 mL/kg, beagle No 3): 2120 ng·h/mL
AUC(0-t) ([2]; male, po, 0.09 g/kg, single TRQCs 0.09 g/kg, beagle No 1): 1700 ng·h/mL
AUC(0-t) ([2]; male, po, 0.09 g/kg, single TRQCs 0.09 g/kg, beagle No 2): 3190 ng·h/mL
AUC(0-t) ([2]; male, po, 0.09 g/kg, single TRQCs 0.09 g/kg, beagle No 3): 4590 ng·h/mL
Freeze-thaw stability (3 cycles) Mean ± S.D. concentration [3, 9]: 1048.41 ± 75.10 ng/mL
Long-term stability (30 days at – 80 °C) Mean ± S.D. concentration [3, 9]: 1081.75 ± 20.70 ng/mL
Short-term stability (6 h at room temperature) Mean ± S.D concentration [3, 9]: 1104.46 ± 16.75 ng/mL
Freeze-thaw stability (3 cycles) Mean ± S.D. concentration [3, 10]: 18.47 ± 1.66 ng/mL
Long-term stability (30 days at – 80 °C) Mean ± S.D. concentration [3, 10]: 18.77 ± 0.41 ng/mL
Short-term stability (6 h at room temperature) Mean ± S.D concentration [3, 10]: 19.38 ± 0.97 ng/mL
Freeze-thaw stability (3 cycles) Mean ± S.D. concentration [3, 11]: 87.08 ± 1.95 ng/mL
Long-term stability (30 days at – 80 °C) Mean ± S.D. concentration [3, 11]: 90.80 ± 1.57 ng/mL
Short-term stability (6 h at room temperature) Mean ± S.D concentration [3, 11]: 97.83 ± 0.62 ng/mL
t1/2 ([4]; Hu's study): 0.933 h
t1/2 ([4]; another study): 0.233 h
